Values quoted from earlier work as cited in patent US6713069B1, “Compositions and methods for detecting, preventing, and treating African Hemorrhagic Fever” (Board of Supervisors of Louisiana State University and …, priority 1996, dated 2004).

Test system: HIV

For enfuvirtide, the “inhibition of HIV infection and fusion” value is given as “inhibit HIV infection and fusion at very low dosages”.
